Assay results: publication PMC4207410, “Clicked Cinnamic/Caffeic Esters and Amides as Radical Scavengers and 5-Lipoxygenase Inhibitors” (International Journal of Medicinal Chemistry, 2014)

How the values were obtained:
[1] = Antiradical activity assay (DPPH radical scavenging); settings: DPPH in ethanol, 30 min in the dark at room temperature, absorbance 520 nm; mean [SD] of 2 experiments
Protocol: The radical scavenging activity of test compounds was measured as previously described using 2,2-diphenyl-1-picrylhydrazyl (DPPH) as a stable radical with slight modifications. Particular care was taken in the preparation of the control (DPPH reagent + ethanol as a diluent without test compounds). Controls with O.D. of 0.350-0.360 at 520 nm were deemed as acceptable to avoid variations in IC50 calculations. 1 mL of DPPH in ethanol ([…]) was mixed with 1 mL of the test compounds at the indicated concentrations or their diluent (ethanol). Each mixture was then shaken vigorously and held in the dark for 30 min at room temperature. The absorbance of DPPH at 520 nm was then measured. The radical scavenging activity was expressed in terms of % inhibition of DPPH absorbance: (1) % Inhibition=[(Acontrol−Atest)/(Acontrol)] ×100, where A control is the absorbance of the control (DPPH solution without test compound) and A test is the absorbance of the test sample (DPPH solution plus compound). Data are expressed as means ± SD of 2 independent experiments, each performed in triplicate (Table 1). IC50 values were calculated from a sigmoidal concentration-response curve fitting model with a variable slope on GraphPad Prism 5 software (GraphPad software, San Diego, California).
Radical scavenging activities of analogous cinnamoyl esters 8a–h, cinnamoyl amides 9a–h, caffeoyl esters 15a–h, and caffeoyl amides 16a–h were assayed using 2,2-diphenyl-1-picrylhydrazyl (DPPH) as a stable radical and are expressed as IC50 concentrations in Table 1.

5-LO [2] = target: T1, 5-LO (Homo sapiens, UniProt P09917); parameters: expressed in transfected cells; method as in PMID 19152786; settings: 10 μM; cited from earlier work
T1 sequence (P09917 1-674): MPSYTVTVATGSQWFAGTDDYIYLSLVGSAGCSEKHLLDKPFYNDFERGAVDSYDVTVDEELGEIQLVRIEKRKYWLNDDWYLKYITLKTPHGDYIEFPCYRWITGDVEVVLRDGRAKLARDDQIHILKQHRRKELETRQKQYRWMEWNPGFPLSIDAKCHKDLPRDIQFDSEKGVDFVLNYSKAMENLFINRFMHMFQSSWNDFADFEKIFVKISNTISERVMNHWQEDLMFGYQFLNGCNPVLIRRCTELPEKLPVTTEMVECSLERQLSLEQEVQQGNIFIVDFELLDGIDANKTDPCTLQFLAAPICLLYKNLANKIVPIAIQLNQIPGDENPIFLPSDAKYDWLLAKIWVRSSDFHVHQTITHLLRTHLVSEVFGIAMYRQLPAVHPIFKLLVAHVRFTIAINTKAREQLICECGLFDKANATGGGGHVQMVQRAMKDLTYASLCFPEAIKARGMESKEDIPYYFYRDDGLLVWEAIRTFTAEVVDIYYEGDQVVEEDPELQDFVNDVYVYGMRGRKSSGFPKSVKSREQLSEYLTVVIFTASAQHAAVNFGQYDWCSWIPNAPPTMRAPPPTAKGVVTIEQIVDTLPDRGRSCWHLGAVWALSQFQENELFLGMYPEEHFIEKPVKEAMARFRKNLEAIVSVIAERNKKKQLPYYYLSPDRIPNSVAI

5-LO [3] = target: T1, 5-LO; experiment: 5-LO products biosynthesis assay in thapsigargin-stimulated human PMNL; type: cell-based; parameters: 5-LO is highly expressed in PMNL; endogenous in cells; host or cells: human PMNL from peripheral blood; settings: stimulated human PMNL, 1 μM
Protocol: Human PMNL were prepared from peripheral blood as described and were suspended in HBSS containing 1.6 mM CaCl2 (10^7 cells/mL) and preincubated with compounds for 5 min at 37°C in the presence of 1 U/mL of adenosine deaminase (Sigma-Aldrich, Oakville, ON, Canada). Cells were then stimulated for 15 min at 37°C with 1 μM thapsigargin (Sigma-Aldrich). Reactions were stopped by the addition of 0.5 volume of cold MeOH : CH3CN (1 : 1) and 50 ng of PGB2 as internal standard and samples were stored at −20°C until processing on octadecyl (C18) columns and RP-HPLC analysis as indicated above. Data are expressed as means ± SEM of 3 independent experiments, each performed in duplicate (Figures 4 and 5).
5-LO is highly expressed in PMNL and these cells are important producers of LTB4 [28, 32].

5-LO [4] = target: T1, 5-LO; experiment: 5-LO products biosynthesis assay in whole HEK293 cells stably transfected with 5-LO and FLAP; type: cell-based; parameters: expressed in transfected cells; settings: whole HEK293 cells, 1 μM
Description: HEK293 cells were cotransfected with a pcDNA3.1 vector expressing 5-LO and a pBUDCE4.1 vector expressing 5-LO activating protein (FLAP) using Polyfect reagent (QIAGEN, Mississauga, ON, Canada) according to the manufacturer's protocol. Stable transfections of HEK293 cells were obtained following cell culture in the presence of Geneticin and Zeocin (Invitrogen, Burlington, ON, Canada). The resulting stable double transfectants were propagated in culture and aliquots were frozen. Once thawed for a series of experiments, each aliquot of cells is cultured for a maximum of 6 weeks before being discarded.
For cell stimulation of 5-LO products, transfected HEK293 cells were collected following trypsinization, washed and the cell pellet was resuspended in Hank's balanced salt solution (HBSS) (Lonza, Walkersville, MD) containing 1.6 mM CaCl2 at a concentration of 5 × 10^5 cells mL^−1. Cells were preincubated with each compound at the indicated concentration for 5 min at 37°C. Cells were then stimulated for 15 minutes at 37°C with the addition of 10 μM calcium ionophore A23187 (Sigma-Aldrich, Oakville, ON, Canada) and 10 μM arachidonic acid (Cayman Chemical, Ann Arbor, MI). Stimulations were stopped and processed on RP-HPLC as described previously. Data are expressed as means ± SEM of 3 independent experiments, each performed in duplicate (Figures 2 and 3).

IC50 [1]: 13.4 µM
5-LO inhibition in stimulated human PMNL (in words) (5-LO [3]): roughly equipotent with Zileuton
Compound: O=C(/C=C/c1ccccc1)OCCn1cc(COC(=O)/C=C/c2ccc(O)c(O)c2)nn1 [compound 4, reference compound]
5-LO inhibition in whole cells (5-LO [2]): near complete 5-LO inhibition
5-LO inhibition in whole HEK293 cells (in words) (5-LO [4]): not significantly different than the control
